Experimental data published in PMC7855844 (Bioorganic & medicinal chemistry, 2020).

Tests used:
Mcl-1 protein = Mcl-1 protein (Homo sapiens, UniProt Q07820); test: Fluorescence polarization-based binding; conditions: for decrease in Mcl-1 inhibitory activity: compared with coumarin 33
A549 cells = test: Cytotoxicity assay by SRB method; conditions: taxol in combination with Cpd 4 vs taxol alone

Mcl-1 protein, sequence (Q07820 whole entry): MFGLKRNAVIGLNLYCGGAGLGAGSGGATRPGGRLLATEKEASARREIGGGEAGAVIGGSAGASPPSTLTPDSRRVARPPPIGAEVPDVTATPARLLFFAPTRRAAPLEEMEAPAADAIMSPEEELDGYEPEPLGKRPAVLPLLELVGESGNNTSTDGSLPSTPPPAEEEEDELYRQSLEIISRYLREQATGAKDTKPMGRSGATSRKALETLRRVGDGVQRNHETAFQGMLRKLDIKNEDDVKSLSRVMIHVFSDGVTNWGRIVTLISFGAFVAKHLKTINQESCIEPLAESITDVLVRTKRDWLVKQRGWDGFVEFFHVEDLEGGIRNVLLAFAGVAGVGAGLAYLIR

Cc1cc(=O)oc2c(CN3CCC(O)CC3)c(O)c(O)cc12 [Cpd 15, 6,7-dihydroxy-8-((4-hydroxypiperidin-1-yl)methyl)-4-methyl-2H-chromen-2-one]
decrease of Mcl-1 inhibitory activity (Mcl-1 protein; compared with parent 1): more than 7 fold

O=c1ccc2cc(O)ccc2o1 [Cpd 34, 6-hydroxycoumarin]
decrease in Mcl-1 inhibitory activity (Mcl-1 protein): 6 fold

O=c1ccc2ccc(O)cc2o1 [Cpd 35, 7-hydroxycoumarin]
decrease in Mcl-1 inhibitory activity (Mcl-1 protein): little effect

CC(=O)O[C@H]1C(=O)[C@@]2(C)[C@H]([C@H](OC(=O)c3ccccc3)[C@]3(O)C[C@H](OC(=O)[C@H](O)[C@@H](NC(=O)c4ccccc4)c4ccccc4)C(C)=C1C3(C)C)[C@]1(OC(C)=O)CO[C@@H]1C[C@@H]2O [taxol]
decrease of IC50 value for the combination compared with taxol alone (A549 cells): more than 10 fold

FAM-Bid: Bid BH3 peptide of 21-residue (residues 79–99) with a 6-carboxy-fluorescein succinimidyl ester fluorescence tag [reference compound]
Kd (Mcl-1 protein; read-out: Kd for binding to Mcl-1 protein, saturation experiments): 13 nM
